Reference: patent publication US8513423B2 (Janssen Pharmaceutica, NV, priority 2010, dated 2013)
Where a chain is given by its changes, count along the chain named.

Tests used:
[1] = biological target: T1, purified wild type MGL (wt-MGLL 6H-11-313) (Homo sapiens, UniProt Q99685); assay: MGL enzyme activity assay (4MU-B cleavage), wild type MGL; assay type: biochemical; conditions: 10 μM 4MU-B, 5 nM enzyme, 37° C., read-out: MGL wild type inh IC50
T1 construct: purified wild type MGL (wt-MGLL 6H-11-313)
T1 sequence (Q99685 1-303): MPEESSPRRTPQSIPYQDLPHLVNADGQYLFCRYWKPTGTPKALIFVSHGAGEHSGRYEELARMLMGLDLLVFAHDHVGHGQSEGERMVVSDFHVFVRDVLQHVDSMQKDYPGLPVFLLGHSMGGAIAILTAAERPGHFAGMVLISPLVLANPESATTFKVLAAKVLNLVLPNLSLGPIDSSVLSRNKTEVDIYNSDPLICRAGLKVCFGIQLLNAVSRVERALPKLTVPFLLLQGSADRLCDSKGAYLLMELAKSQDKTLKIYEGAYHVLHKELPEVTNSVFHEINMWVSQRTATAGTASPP
Experimental: All rate-based assays were performed in black 384-well polypropylene PCR microplates (Abgene) in a total volume of 30 μL. Substrate 4-methylumbelliferyl butyrate (4MU-B; Sigma) and either purified mutant MGL (mut-MGLL 11-313 L179S L186S) or purified wild type MGL (wt-MGLL 6H-11-313) were diluted separately into 20 mM PIPES buffer (pH=7.0), containing 150 mM NaCl and 0.001% Tween 20. Compounds of Formula (I) were pre-dispensed (50 nL) into the assay plate using a Cartesian Hummingbird prior to adding 4MU-B (25 μL of 1.2× solution to a final concentration of 10 μM) followed by enzyme (5 μL of a 6× solution to a final concentration of 5 nM) to initiate the reaction. Final compound concentrations ranged from 17 to 0.0003 μM. The fluorescence change due to 4MU-B cleavage was monitored with excitation and emission wavelengths of 335 and 440 nm, respectively, and a bandwidth of 10 nm (Safire^2, Tecan) at 37° C. for 5 min.
The IC50 values for compounds of Formula (I) were determined using Excel from a fit of the equation to the concentration-response plot of the fractional activity as a function of inhibitor concentration.

MGL = biological target: T2, MGL (Rattus norvegicus, UniProt Q8R431); assay: 2-AG accumulation assay in rat brain homogenate; assay type: biochemical; conditions: compound @1 μM, read-out: Rat Brain 2AG % VehCntrl (%) @1 μM
T2 construct: one g rat brain was homogenized; from tissue; host or cells: rat brain homogenate
T2 sequence (Q8R431 1-303): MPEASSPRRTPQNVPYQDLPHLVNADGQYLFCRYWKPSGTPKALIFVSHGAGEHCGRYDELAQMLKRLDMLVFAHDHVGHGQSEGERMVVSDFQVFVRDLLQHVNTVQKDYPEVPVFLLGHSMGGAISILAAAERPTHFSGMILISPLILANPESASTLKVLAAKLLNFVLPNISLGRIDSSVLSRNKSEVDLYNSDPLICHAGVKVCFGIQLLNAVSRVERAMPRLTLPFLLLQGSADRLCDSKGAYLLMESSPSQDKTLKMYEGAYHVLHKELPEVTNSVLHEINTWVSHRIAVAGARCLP
Experimental: After a 15-min incubation time at 37° C., CaCl2 (final concentration=10 mM) was added and then incubated for 15 min at 37° C. in a total volume of 5 mL. The reactions were stopped with 6 mL organic solvent extraction solution of 2:1 chloroform/methanol. Accumulated 2-AG in the organic phase was measured by a HPLC/MS method, according to the following equation: percent vehicle=(2-AG accumulation in the presence of compound/2-AG accumulation in vehicle)×100.

mutant MGL = biological target: T3, mutant MGL (Homo sapiens, UniProt Q99685, L169S/L176S); assay: MGL ThermoFluor assay - mutant; assay type: binding; conditions: 0.07 mg/ml mutant MGL, pH=7.0; read-out: MGL mutant ThermoFluor Kd
T3 construct: purified mutant MGL (mut-MGLL 11-313 L179S L186S)
T3 sequence (Q99685 1-303 L169S/L176S): T1 sequence (Q99685 1-303) with L169S, L176S
Experimental: The ThermoFluor (TF) assay is a 384-well plate-based binding assay that measures thermal stability of proteins^1,2. The experiments were carried out using instruments available from Johnson & Johnson Pharmaceutical Research & Development, LLC. TF dye used in all experiments was 1,8-ANS (Invitrogen: A-47). Final TF assay conditions used for MGL studies were 0.07 mg/ml of mutant MGL, 100 μM ANS, 200 mM NaCl, 0.001% Tween-20 in 50 mM PIPES (pH=7.0).
Screening compound plates contained 100% DMSO compound solutions at a single concentration. For follow-up concentration-response studies, compounds were arranged in a pre-dispensed plate (Greiner Bio-one: 781280), wherein compounds were serially diluted in 100% DMSO across 11 columns within a series. Columns 12 and 24 were used as DMSO reference and contained no compound. For both single and multiple compound concentration-repsonse experiments, the compound aliquots (46 nL) were robotically predispensed directly into 384-well black assay plates (Abgene: TF-0384/k) using the Hummingbird liquid handler. Following compound dispension, protein and dye solutions were added to achieve the final assay volume of 3 μL. The assay solutions were overlayed with 1 μl of silicone oil (Fluka, type DC 200: 85411) to prevent evaporation.
Bar-coded assay plates were robotically loaded onto a thermostatically controlled PCR-type thermal block and then heated from 40 to 90° C. degrees at a ramp-rate of 1° C./min for all experiments. Fluorescence was measured by continuous illumination with UV light (Hamamatsu LC6), supplied via fiber optics and filtered through a band-pass filter (380-400 nm; >6 OD cutoff). Fluorescence emission of the entire 384-well plate was detected by measuring light intensity using a CCD camera (Sensys, Roper Scientific) filtered to detect 500±25 nm, resulting in simultaneous and independent readings of all 384 wells. A single image with 20-sec exposure time was collected at each temperature, and the sum of the pixel intensity in a given area of the assay plate was recorded vs temperature and fit to standard equations to yield the Tm^1. • 1. Pantoliano, M. W., Petrella, E. C., Kwasnoski, J. D., Lobanov, V. S., Myslik, J., Graf, E., Carver, T., Asel, E., Springer, B. A., Lane, P., and Salemme, F. R. (2001) J Biomol Screen 6, 429-40. • 2. Matulis, D., Kranz, J. K., Salemme, F. R., and Todd, M. J. (2005) Biochemistry 44, 5258-66.
The Kd values for compounds of Formula (I) were determined from a fit of the equation to the concentration-response plot of the fractional activity as a function of Tm. For some experiments, quantitative NMR spectroscopy (qNMR) was used to measure concentration of the initial 100% DMSO compound solutions and, using the same fitting method, qKd values were determined

IC50 [1] [nM] | 2-AG accumulation, percent of vehicle control at 1 µM (MGL) [%] | Kd (mutant MGL) [nM] | SMILES
7 | 523 | 4 | O=C(c1nccs1)N1CCC(C2CN(C(=O)c3sc4cc(F)ccc4c3Cl)C2)CC1 [Cpd 8, 4-{1-[(3-Chloro-6-fluoro-1-benzothiophen-2-yl)carbonyl]azetidin-3-yl}-1-(1,3-thiazol-2-ylcarbonyl)piperidine]
15.5 | 194 | 11 | O=C(c1ccc(-c2cccc(C(F)(F)F)c2)cc1)N1CC(C2CCN(C(=O)c3cscn3)CC2)C1 [Cpd 10, 1-(1,3-Thiazol-4-ylcarbonyl)-4-(1-{[3′-(trifluoromethyl)biphenyl-4-yl]carbonyl}azetidin-3-yl)piperidine]
10 | 134 | 22 | O=C(c1ccc(-c2ccc(C(F)(F)F)s2)cc1)N1CC(C2CCN(C(=O)c3cscn3)CC2)C1 [Cpd 12, 1-(1,3-Thiazol-4-ylcarbonyl)-4-[1-({4-[5-(trifluoromethyl)thiophen-2-yl]phenyl}carbonyl)azetidin-3-yl]piperidine]
< 5 | 335 | 28 | O=C(c1ccc(Cc2cccc(C(F)(F)F)c2)cc1)N1CC(C2CCN(C(=O)c3cscn3)CC2)C1 [Cpd 13, 1-(1,3-Thiazol-4-ylcarbonyl)-4-[1-({4-[3-(trifluoromethyl)benzyl]phenyl}carbonyl)azetidin-3-yl]piperidine]
5 | 231 | 5 | Cc1c(C(=O)N2CC(C3CCN(C(=O)c4cscn4)CC3)C2)sc2cc(C(F)(F)F)ccc12 [Cpd 14, 4-(1-{[3-Methyl-6-(trifluoromethyl)-1-benzothiophen-2-yl]carbonyl}azetidin-3-yl)-1-(1,3-thiazol-4-ylcarbonyl)piperidine]
7 | 281 | 9 | O=C(c1nccs1)N1CCC(C2CN(C(=O)c3ccc(-c4ccccc4)cc3F)C2)CC1 [Cpd 15, 4-{1-[(3-Fluorobiphenyl-4-yl)carbonyl]azetidin-3-yl}-1-(1,3-thiazol-2-ylcarbonyl)piperidine]
7 | 493 | 2 | O=C(c1ccc(-c2cccc(C(F)(F)F)c2)cc1)N1CC(C2CCN(C(=O)c3nccs3)CC2)C1 [Cpd 16, 1-(1,3-Thiazol-2-ylcarbonyl)-4-(1-{[3′-(trifluoromethyl)biphenyl-4-yl]carbonyl}azetidin-3-yl)piperidine]
17.3 | 184 | 99 | O=C(c1cccc(-c2cccc(F)c2)c1)N1CC(C2CCN(C(=O)c3nccs3)CC2)C1 [Cpd 17, 4-{1-[(3′-Fluorobiphenyl-3-yl)carbonyl]azetidin-3-yl}-1-(1,3-thiazol-2-ylcarbonyl)piperidine]
12.5 | 457 | 3 | O=C(c1ccc(-c2ccc(C(F)(F)F)s2)cc1)N1CC(C2CCN(C(=O)c3nccs3)CC2)C1 [Cpd 18, 1-(1,3-Thiazol-2-ylcarbonyl)-4-[1-({4-[5-(trifluoromethyl)thiophen-2-yl]phenyl}carbonyl)azetidin-3-yl]piperidine]
< 5 | 559 | 9 | O=C(c1ccc(Cc2cccc(C(F)(F)F)c2)cc1)N1CC(C2CCN(C(=O)c3nccs3)CC2)C1 [Cpd 19, 1-(1,3-Thiazol-2-ylcarbonyl)-4-[1-({4-[3-(trifluoromethyl)benzyl]phenyl}carbonyl)azetidin-3-yl]piperidine]
12.4 | 287 | 28.6 | O=C(c1ccc[nH]1)N1CCC(C2CN(C(=O)c3ccc(-c4ccccc4)cc3F)C2)CC1 [Cpd 21, 4-{1-[(3-Fluorobiphenyl-4-yl)carbonyl]azetidin-3-yl}-1-(1H-pyrrol-2-ylcarbonyl)piperidine]
8 | 470 | 6.6 | O=C(c1ccc(-c2cccc(C(F)(F)F)c2)cc1)N1CC(C2CCN(C(=O)c3ccc[nH]3)CC2)C1 [Cpd 22, 1-(1H-Pyrrol-2-ylcarbonyl)-4-(1-{[3′-(trifluoromethyl)biphenyl-4-yl]carbonyl}azetidin-3-yl)piperidine]
37.9 | 298 | 19.9 | O=C(c1ccc(-c2ccc(C(F)(F)F)s2)cc1)N1CC(C2CCN(C(=O)c3ccc[nH]3)CC2)C1 [Cpd 24, 1-(1H-Pyrrol-2-ylcarbonyl)-4-[1-({4-[5-(trifluoromethyl)thiophen-2-yl]phenyl}carbonyl)azetidin-3-yl]piperidine]
< 5 | 303 | 3.6 | Cc1c(C(=O)N2CC(C3CCN(C(=O)c4ccc[nH]4)CC3)C2)sc2cc(C(F)(F)F)ccc12 [Cpd 26, 4-(1-{[3-Methyl-6-(trifluoromethyl)-1-benzothiophen-2-yl]carbonyl}azetidin-3-yl)-1-(1H-pyrrol-2-ylcarbonyl)piperidine]
